Assay results taken from ChEMBL document CHEMBL1777732 (Bioorg Med Chem Lett, 2011).
Active and inactive are the calls of the source. The rule behind the calls is not given here.

Assays:
[1] = target: T1, Metabotropic glutamate receptor 5 (Homo sapiens, UniProt P41594); assay: Displacement of [3H]-MPEP from human mGluR5 expressed in HEK293 cells after 2 hrs; assay type: cell-based
Target sequence in this assay (P41594 whole entry): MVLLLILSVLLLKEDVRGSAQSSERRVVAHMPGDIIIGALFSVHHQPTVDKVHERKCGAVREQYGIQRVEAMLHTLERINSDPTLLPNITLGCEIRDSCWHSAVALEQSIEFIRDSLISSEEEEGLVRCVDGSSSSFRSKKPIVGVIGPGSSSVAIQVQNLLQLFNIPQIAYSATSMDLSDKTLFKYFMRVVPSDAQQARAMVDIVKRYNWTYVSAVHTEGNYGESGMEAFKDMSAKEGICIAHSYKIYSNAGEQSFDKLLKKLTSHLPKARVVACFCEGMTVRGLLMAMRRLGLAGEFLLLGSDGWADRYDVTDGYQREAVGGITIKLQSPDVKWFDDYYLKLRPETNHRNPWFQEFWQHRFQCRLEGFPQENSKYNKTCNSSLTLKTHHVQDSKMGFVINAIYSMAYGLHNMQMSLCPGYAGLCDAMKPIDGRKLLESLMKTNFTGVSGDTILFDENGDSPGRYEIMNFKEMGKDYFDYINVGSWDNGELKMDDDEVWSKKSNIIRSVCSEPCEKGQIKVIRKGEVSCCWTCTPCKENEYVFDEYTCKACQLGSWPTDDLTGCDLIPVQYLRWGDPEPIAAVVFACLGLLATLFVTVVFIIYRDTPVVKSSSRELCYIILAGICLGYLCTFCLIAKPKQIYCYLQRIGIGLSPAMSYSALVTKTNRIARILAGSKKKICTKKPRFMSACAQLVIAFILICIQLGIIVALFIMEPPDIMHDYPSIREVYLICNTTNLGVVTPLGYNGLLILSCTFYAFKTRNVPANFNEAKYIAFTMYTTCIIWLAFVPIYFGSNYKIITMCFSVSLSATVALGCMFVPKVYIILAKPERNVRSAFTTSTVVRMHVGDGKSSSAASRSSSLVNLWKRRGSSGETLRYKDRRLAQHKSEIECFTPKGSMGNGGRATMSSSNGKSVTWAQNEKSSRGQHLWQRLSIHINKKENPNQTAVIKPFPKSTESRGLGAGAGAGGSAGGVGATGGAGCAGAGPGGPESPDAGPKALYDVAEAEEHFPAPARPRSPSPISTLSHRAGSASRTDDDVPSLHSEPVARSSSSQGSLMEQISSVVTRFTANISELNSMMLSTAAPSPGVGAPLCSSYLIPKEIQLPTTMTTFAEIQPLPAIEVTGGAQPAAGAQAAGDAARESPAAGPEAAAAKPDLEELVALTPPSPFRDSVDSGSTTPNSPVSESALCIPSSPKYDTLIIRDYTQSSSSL

[2] = target: T1, Metabotropic glutamate receptor 5; assay: Negative allosteric modulation of human mGluR5 expressed in HEK293 cells assessed as inhibition of L-glutamate-induced calcium mobilization by FLIPR assay; assay type: functional, cell-based
Target sequence in this assay (P41594 whole entry): as above

[3] = target: T1, Metabotropic glutamate receptor 5; assay: Negative allosteric modulation of human mGluR5 expressed in HEK293 cells assessed as inhibition of L-glutamate-induced calcium mobilization at 10 uM by FLIPR assay relative to control; assay type: functional, cell-based
Target sequence in this assay (P41594 21-1212 limits assumed): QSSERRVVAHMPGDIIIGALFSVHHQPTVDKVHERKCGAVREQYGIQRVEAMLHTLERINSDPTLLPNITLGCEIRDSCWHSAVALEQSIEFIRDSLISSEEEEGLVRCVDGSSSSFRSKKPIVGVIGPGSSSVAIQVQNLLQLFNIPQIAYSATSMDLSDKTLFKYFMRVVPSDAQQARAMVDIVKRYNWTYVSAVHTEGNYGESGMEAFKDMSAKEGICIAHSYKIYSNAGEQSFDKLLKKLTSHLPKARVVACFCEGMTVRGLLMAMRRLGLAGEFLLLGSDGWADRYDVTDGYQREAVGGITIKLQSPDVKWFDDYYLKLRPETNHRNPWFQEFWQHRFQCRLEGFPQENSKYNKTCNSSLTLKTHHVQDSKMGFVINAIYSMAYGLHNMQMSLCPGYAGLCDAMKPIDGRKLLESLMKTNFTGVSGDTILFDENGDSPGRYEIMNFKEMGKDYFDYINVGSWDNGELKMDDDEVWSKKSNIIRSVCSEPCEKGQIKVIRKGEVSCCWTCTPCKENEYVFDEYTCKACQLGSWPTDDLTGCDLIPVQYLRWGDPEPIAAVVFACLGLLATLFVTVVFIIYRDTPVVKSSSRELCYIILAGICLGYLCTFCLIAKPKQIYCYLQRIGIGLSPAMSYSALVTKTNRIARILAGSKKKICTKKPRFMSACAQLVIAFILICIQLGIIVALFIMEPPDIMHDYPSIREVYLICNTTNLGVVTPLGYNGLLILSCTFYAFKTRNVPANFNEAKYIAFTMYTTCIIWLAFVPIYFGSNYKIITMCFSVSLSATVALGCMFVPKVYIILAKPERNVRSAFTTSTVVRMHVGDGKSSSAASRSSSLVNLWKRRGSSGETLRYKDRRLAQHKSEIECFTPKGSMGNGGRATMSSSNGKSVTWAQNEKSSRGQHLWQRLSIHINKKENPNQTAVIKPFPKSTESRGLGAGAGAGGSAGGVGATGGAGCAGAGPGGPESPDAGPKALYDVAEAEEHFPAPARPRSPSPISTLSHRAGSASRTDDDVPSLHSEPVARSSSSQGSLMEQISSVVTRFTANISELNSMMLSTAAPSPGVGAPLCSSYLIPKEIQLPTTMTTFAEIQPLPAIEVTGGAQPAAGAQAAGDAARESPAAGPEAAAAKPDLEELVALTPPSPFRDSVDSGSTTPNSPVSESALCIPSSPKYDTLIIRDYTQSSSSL

[4] = target: T1, Metabotropic glutamate receptor 5; assay: Positive allosteric modulation of human mGluR5 expressed in HEK293 cells assessed as increase of L-glutamate-induced calcium mobilization at 10 uM by FLIPR assay relative to L-glutamate; assay type: functional, cell-based
Target sequence in this assay (P41594 21-1212 limits assumed): as above

[5] = target: T1, Metabotropic glutamate receptor 5; assay: Positive allosteric modulation of human mGluR5 expressed in HEK293 cells assessed as increase of L-glutamate-induced calcium mobilization by FLIPR assay; assay type: functional, cell-based
Target sequence in this assay (P41594 whole entry): as the sequence (P41594 whole entry) above

Row | Structure (SMILES) | Ki [1] | IC50 ([2]; read-out: IC50) | Imax [3] | Emax [4] | EC50 ([5]; read-out: EC50) | IC50 ([2]; hek293) | EC50 ([5]; hek293)
1 | CC(C)N1CCc2nc(C#Cc3ccccc3)ccc2C1=O | 1280 nM | 706 nM | 60% |  |  |  | 
2 | Cc1cccc(C#Cc2ccc3c(n2)CCN(C(C)C)C3=O)c1 | 510 nM | 4.8 nM | 88% |  |  |  | 
3 | Cc1ccc(C#Cc2ccc3c(n2)CCN(C(C)C)C3=O)cc1 | 20200 nM |  |  | 28% | 1010 nM |  | 
4 | CC(C)N1CCc2nc(C#Cc3cccc(Cl)c3)ccc2C1=O | 100 nM | 5.7 nM | 86% |  |  |  | 
5 | CC(C)N1CCc2nc(C#Cc3cccnc3)ccc2C1=O | 19600 nM |  |  |  |  | Not Active | Not Active
6 | O=C1c2ccc(C#Cc3cccs3)nc2CCN1C1CCCC1 | 2840 nM |  |  | 103% | 12 nM |  | 
7 | CC(C)N1CCc2nc(C#Cc3cccs3)ccc2C1=O | 1930 nM | 45 nM | 78% |  |  |  | 
8 | CC(C)N1CCc2nc(C#Cc3ccccc3Cl)ccc2C1=O | 5680 nM | 2520 nM | 61% |  |  |  | 
9 | CN1CCc2nc(C#Cc3ccccc3)ccc2C1=O | 760 nM | 30 nM | 58% |  |  |  | 
10 | O=C1c2ccc(C#Cc3cccnc3)nc2CCN1C1CCCC1 | > 32000 nM |  |  | 68% | 748 nM |  | 
11 | CN1CCc2nc(C#Cc3cccc(Cl)c3)ccc2C1=O | 250 nM | 22 nM | 84% |  |  |  | 
12 | CC(C)NC(=O)c1ccc(C#Cc2ccccc2)nc1 | 7100 nM |  |  | 61% | 62 nM |  | 
13 | O=C1c2ccc(C#Cc3ccc(Cl)cc3)nc2CCN1C1CCCC1 | > 32000 nM |  |  | 98% | 979 nM |  | 
14 | O=C(NC1CCCC1)c1ccc(C#Cc2ccccc2)nc1 | 3300 nM |  |  | 106% | 19 nM |  | 
15 | COc1cccc(C#Cc2ccc3c(n2)CCN(C(C)C)C3=O)c1 | 2950 nM | 111 nM | 88% |  |  |  | 
16 | CN1CCc2nc(C#Cc3ccccn3)ccc2C1=O | 6240 nM | 184 nM | 92% |  |  |  | 
17 | CN1CCc2nc(C#Cc3ccc(Cl)cc3)ccc2C1=O | 6150 nM | 352 nM | 73% |  |  |  | 
18 | COc1cccc(C#Cc2ccc3c(n2)CCN(C)C3=O)c1 | 3660 nM | 293 nM | 88% |  |  |  | 
19 | CNC(=O)c1ccc(C#Cc2ccccc2)nc1 | 15000 nM |  |  |  |  |  | 
20 | Cc1cccc(C#Cc2ccc3c(n2)CCN(C)C3=O)c1 | 820 nM | 2.9 nM | 86% |  |  |  | 
21 | O=C(NC1CCCC1)c1ccc(C#Cc2cccnc2)nc1 | > 32000 nM |  |  | 68% | > 10000 nM |  | 
22 | CC(C)N1CCc2nc(C#Cc3ccc(Cl)cc3)ccc2C1=O | 27100 nM | 4230 nM | 61% |  |  |  | 
23 | CN1CCc2nc(C#Cc3ccccc3Cl)ccc2C1=O | 7900 nM | 916 nM | 70% |  |  |  | 
24 | Cc1ccccc1C#Cc1ccc2c(n1)CCN(C)C2=O | > 32000 nM | 776 nM | 80% |  |  |  | 
25 | Cc1ccccc1C#Cc1ccc2c(n1)CCN(C(C)C)C2=O | > 32000 nM | 810 nM | 76% |  |  |  | 
26 | CC(C)N1CCc2nc(C#Cc3ccccn3)ccc2C1=O | 2740 nM | 27 nM | 89% |  |  |  | 
27 | Cc1ccc(C#Cc2ccc3c(n2)CCN(C)C3=O)cc1 | 7450 nM | 1400 nM | 68% |  |  |  | 
28 | O=C(NC1CCCC1)c1ccc(C#Cc2ccccn2)nc1 | 7600 nM | 227 nM | 90% |  |  |  | 
29 | CN1CCc2nc(C#Cc3cccnc3)ccc2C1=O | 27400 nM |  |  |  |  | Not Active | Not Active
30 | CN1CCc2nc(C#Cc3cccs3)ccc2C1=O | 2170 nM | 451 nM | 49% |  |  |  | 

Further lines, results first:

Row | Ki [1] | IC50 ([2]; read-out: IC50) | Imax [3] | Emax [4] | EC50 ([5]; read-out: EC50) | IC50 ([2]; hek293) | EC50 ([5]; hek293) | Structure (SMILES)
31 | > 32000 nM |  |  | 25% | 462 nM |  |  | COc1cccc(C#Cc2ccc3c(n2)CCN(C2CCCC2)C3=O)c1
32 | 5230 nM |  |  | 87% | 33 nM |  |  | O=C1c2ccc(C#Cc3cccc(Cl)c3)nc2CCN1C1CCCC1
33 | > 32000 nM |  | inactive | inactive |  | Not Active | Not Active | O=C1c2ccc(C#Cc3ccc(Cl)cc3)nc2CCN1C1CCCCC1
34 | 18800 nM |  |  | 107% | 239 nM |  |  | Cc1ccccc1C#Cc1ccc2c(n1)CCN(C1CCCC1)C2=O
35 | 3210 nM |  |  | 54% | 36 nM |  |  | Cc1cccc(C#Cc2ccc3c(n2)CCN(C2CCCCC2)C3=O)c1
36 | 1770 nM | 199 nM | 80% |  |  |  |  | O=C1c2ccc(C#Cc3ccccn3)nc2CCN1C1CCCC1
37 | 2240 nM | 518 nM | 74% |  |  |  |  | O=C1c2ccc(C#Cc3ccccn3)nc2CCN1C1CCCCC1
38 | 15600 nM |  |  | 73% | 387 nM |  |  | O=C1c2ccc(C#Cc3cccnc3)nc2CCN1C1CCCCC1
39 | 12000 nM |  |  | 47% | 171 nM |  |  | O=C1c2ccc(C#Cc3cccc(Cl)c3)nc2CCN1C1CCCCC1
40 | 27200 nM |  |  |  |  |  |  | Cc1ccc(C#Cc2ccc3c(n2)CCN(C2CCCCC2)C3=O)cc1
41 | 23200 nM |  |  |  |  |  |  | COc1cccc(C#Cc2ccc3c(n2)CCN(C2CCCCC2)C3=O)c1
42 | > 32000 nM |  |  | 97% | 4820 nM |  |  | Cc1ccc(C#Cc2ccc3c(n2)CCN(C2CCCC2)C3=O)cc1
43 | 720 nM |  |  | 112% | 13 nM |  |  | O=C1c2ccc(C#Cc3cccs3)nc2CCN1C1CCCCC1
44 | 670 nM |  |  | 97% | 7.5 nM |  |  | Cc1cccc(C#Cc2ccc3c(n2)CCN(C2CCCC2)C3=O)c1
45 | > 32000 nM |  |  | 115% | 393 nM |  |  | O=C1c2ccc(C#Cc3ccccc3Cl)nc2CCN1C1CCCC1
46 | 890 nM |  |  | 109% | 5.9 nM |  |  | O=C1c2ccc(C#Cc3ccccc3)nc2CCN1C1CCCC1
47 | > 32000 nM |  |  | 68% | 924 nM |  |  | O=C1c2ccc(C#Cc3ccccc3Cl)nc2CCN1C1CCCCC1
48 | 12400 nM |  |  | 122% | 40 nM |  |  | O=C1c2ccc(C#Cc3ccccc3)nc2CCN1C1CCCCC1
49 | > 32000 nM |  |  | 62% | 466 nM |  |  | Cc1ccccc1C#Cc1ccc2c(n1)CCN(C1CCCCC1)C2=O
